The target in one data set is T1, EGFR (Homo sapiens, UniProt P00533).
T1 construct: endogenous in cells; host or cells: A431 human epidermoid vulval carcinoma cells
Put plainly: Irreversibility test protocol: EGFR autophosphorylation inhibition in intact A431 cells (Western blot). The data set is classed as cell-based. The following applies: for irreversible inhibitory characteristic (irreversible binding to EGFR): A431 cells, EGF stimulation 8 hours after removal of the inhibitor vs immediately after. On the procedure: Irreversibility Test Protocol: The inhibitory potency of compounds 1a-c, as well as the irreversible nature of EGFR inhibition thereof were evaluated in intact A431 cells, according to published procedures (Smail et al., 1999). In brief, A431 human epidermoid vulval carcinoma were grown in six-well plates for 48 hours and further maintained in serum-free media for additional 18 hours. Duplicate sets of cells were incubated with increasing concentrations of the tested inhibitor for one hour. One set of the cells was thereafter stimulated with EGF, immediately after removal of the tested inhibitor. Another set of the cells was washed to remove the inhibitor, and EGF stimulation was carried out 8 hours after removal of the inhibitor from the medium. Cell lysates were prepared and loaded onto SDS-PAGE (8% acryl amide) for Western Blot analysis, and the extent of EGFR phosphorylation was evaluated by measuring the signal intensity of the corresponding phosphotyrosine band using a mix of anti-phosphotyrosine antibodies, PY20 (Santa Cruz Biotechnology Inc.) and 4G10 (produced from Su4G10 hybridoma cells). The degree of EGFR phosphorylation was measured for each set of cells and the IC50 values of Compounds 1a-c and 10b, vis-à-vis the level of EGFR's phosphotyrosine content were determined. A minimum of two different assays with similar results were considered. Each experiment was performed in duplicates.
The inhibitory potency of exemplary compounds according to the present embodiments, as well as the extent of their irreversible inhibition of the EGFR were first evaluated in intact A431 cells, using the protocol described hereinabove. The IC50 values were determined by the extent of EGFR phosphorylation at each inhibitor concentration either immediately after or 8 hours post removal of the tested inhibitor from the medium.
In general terms: A western blot detects proteins with antibodies after separation by electrophoresis.

Data set [1] is described as follows: Water solubility determination (HPLC). The data set is classed as physicochemical. The following applies: aqueous buffer, thermodynamic from solid; MOPS buffer pH 7.4, room temperature. The method, then: DMSO (1 ml) and MOPS buffer pH 7.4 (1 ml) were separately added to test tubes containing the tested compound (Compounds 1a-c and 10b, ML04 or ML05), such that for each compound, two test tubes were prepared. The tubes were sonicated at room temperature for 20 minute, left intact for 10 minutes, and were then filtered through a 0.45 μm filter. Each of the DMSO solutions was diluted 10-folds with DMSO. A 50 μl sample of each solution was analyzed by HPLC (using C-18 analytical column, a mixture of 55% CH3CN:45% acetate buffer 0.1 M, pH 3.8, as a mobile phase at a flow rate of 1 ml/minute, and a UV detector operated at 254 nm). Measurements were performed in triplicate.

Data set [2] in a line: Partition coefficient determination (1-octanol/buffer, HPLC). The data set is classed as physicochemical. The conditions noted are these: 1-octanol / sodium phosphate buffer 0.1 M, pH 7.4; read-out: Log P (partition coefficient). The method, then: Partition coefficient determination: Compounds 1a-c and 10b, ML04 and ML05 (3 mg) were dissolved in sodium phosphate buffer (0.1 M, pH 7.4, 5 ml) and 1-octanol (1 ml) and the resulting mixture was vortexed for 2 minutes, filtered, and maintained at room temperature for 10 minutes. The reaction mixture was then centrifuged at 4000 g for 10 minutes. Fifty (50) μl portions were taken from the organic (1-octanol) and from the aqueous (buffer) layers, and were dissolved in 0.45 ml acetonitrile. The samples were analyzed by HPLC system (C-18 analytical column, a mixture of 55% acetonitrile:45% acetate buffer 0.1 M, pH 3.8 as a mobile phase, flow rate of 1 ml/minute). The partition coefficients (Log P) were determined by the concentration ratio of the tested compound in the organic phase and the aqueous phase. Measurements were performed in triplicate.

In brackets after ≈: the same amount, converted by molar mass.

T1 sequence (P00533 25-1210): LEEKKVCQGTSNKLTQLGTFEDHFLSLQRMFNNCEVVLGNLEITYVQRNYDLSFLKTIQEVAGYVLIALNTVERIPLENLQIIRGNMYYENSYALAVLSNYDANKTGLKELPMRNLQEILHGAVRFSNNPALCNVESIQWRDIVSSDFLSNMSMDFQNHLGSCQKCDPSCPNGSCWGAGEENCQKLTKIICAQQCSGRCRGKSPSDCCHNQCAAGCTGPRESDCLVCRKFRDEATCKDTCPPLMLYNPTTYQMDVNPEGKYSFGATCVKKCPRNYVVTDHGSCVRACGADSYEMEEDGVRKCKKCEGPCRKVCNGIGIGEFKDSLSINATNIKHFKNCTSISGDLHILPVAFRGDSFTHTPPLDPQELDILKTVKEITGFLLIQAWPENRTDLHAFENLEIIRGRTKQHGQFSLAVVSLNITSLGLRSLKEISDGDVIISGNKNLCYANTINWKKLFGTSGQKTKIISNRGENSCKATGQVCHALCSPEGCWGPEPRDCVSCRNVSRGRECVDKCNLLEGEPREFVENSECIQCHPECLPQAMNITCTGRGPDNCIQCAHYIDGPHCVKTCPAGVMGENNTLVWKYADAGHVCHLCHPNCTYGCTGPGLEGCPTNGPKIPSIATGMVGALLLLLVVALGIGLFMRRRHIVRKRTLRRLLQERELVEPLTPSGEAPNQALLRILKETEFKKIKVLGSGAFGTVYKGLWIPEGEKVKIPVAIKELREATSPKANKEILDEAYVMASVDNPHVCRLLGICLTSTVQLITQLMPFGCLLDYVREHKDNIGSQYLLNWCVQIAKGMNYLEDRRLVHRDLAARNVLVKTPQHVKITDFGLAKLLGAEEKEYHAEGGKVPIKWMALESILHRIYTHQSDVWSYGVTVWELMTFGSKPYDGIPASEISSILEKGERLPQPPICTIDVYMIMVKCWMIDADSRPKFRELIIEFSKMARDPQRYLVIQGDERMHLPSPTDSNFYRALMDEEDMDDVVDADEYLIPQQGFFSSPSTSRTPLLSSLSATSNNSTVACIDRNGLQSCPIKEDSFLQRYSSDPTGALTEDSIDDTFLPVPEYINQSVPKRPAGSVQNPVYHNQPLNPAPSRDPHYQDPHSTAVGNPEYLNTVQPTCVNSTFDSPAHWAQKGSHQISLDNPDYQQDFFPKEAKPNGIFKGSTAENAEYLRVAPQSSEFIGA

As usually defined, the melting point is the temperature of the solid-liquid transition. Regarding `O=C(CCl)Nc1cc2c(Nc3cc(Cl)c(Cl)cc3F)ncnc2cc1OCCOCCF` [Compound 1a, 2-Chloro-N-{4-(4,5-Dichloro-2-fluoro-phenylamino)-7-[2-(2-fluoro-ethoxy)-ethoxy]-quinazoline-6-yl}-acetamide], the melting point fell in the range of 167 to 169 °C. Further, the “irreversible inhibitory characteristic (irreversible binding to EGFR)” value at EGFR is “irreversibly bind to the EGFR”.

In turn, `O=C(CCl)Nc1cc2c(Nc3cc(Cl)c(Cl)cc3F)ncnc2cc1OCCOCCOCCOCCF` [Compound 1b, 2-Chloro-N-[4-(4,5-Dichloro-2-fluoro-phenylamino)-7-(2-{2-[2-(2-fluoro-ethoxy)-ethoxy]-ethoxy}-ethoxy)-quinazoline-6-yl]-acetamide] yielded a melting point of 135 to 137 °C. Besides, the “irreversible inhibitory characteristic (irreversible binding to EGFR)” value at EGFR is “irreversibly bind to the EGFR”.

On to `O=C(CCl)Nc1cc2c(Nc3cc(Cl)c(Cl)cc3F)ncnc2cc1OCCOCCOCCOCCOCCOCCF` [Compound 1c, 2-Chloro-N-(4-(4,5-Dichloro-2-fluoro-phenylamino)-7-{2-[2-(2-{2-[2-(2-fluoro-ethoxy)-ethoxy]-ethoxy}-ethoxy)-ethoxy]-ethoxy}-quinazoline-6-yl)-acetamide], for which the “irreversible inhibitory characteristic (irreversible binding to EGFR)” value at EGFR is “irreversibly bind to the EGFR”.

As a reminder, the solubility is the dissolved amount per volume that the medium holds. As a reminder, the IC50 is the concentration needed to halve the response being measured. In turn, `CN(C)CC=CC(=O)Nc1cc2c(Nc3cc(Cl)c(Cl)cc3F)ncnc2cc1OCCOCCOCCOCCF` [Compound 10b, 4-dimethylamino-but-2-enoic acid {4-(4,5-Dichloro-2-fluoro-phenylamino)-7-(2-{2-[2-(2-fluoro-ethoxy)-ethoxy]-ethoxy}-ethoxy)-quinazoline-6-yl}-amide] showed a solubility at 20 min in data set [1] of 3.5 µg/mL (≈ 5.57 µM). Besides, in data set [2], the logP is 3.7. Moreover, the “irreversible inhibitory characteristic (irreversible binding to EGFR)” value on EGFR is recorded as “irreversible inhibitory characteristic”. For the same molecule, at EGFR (intact A431 cells, 1 hour incubation with inhibitor, EGF stimulation, read-out: IC50 vis-à-vis the level of EGFR's phosphotyrosine content), the IC50 turned out to be 5 nM.

For the molecule `CN(C)CC=CC(=O)Nc1ccc2ncnc(Nc3cc(Cl)c(Cl)cc3F)c2c1` [ML04, 4-dimethylamino-but-2-enoic acid [4-(3,4-dichloro-6-fluoro-phenylamino)-quinazoline-6-yl]-amide, reference compound], the solubility at 20 min in data set [1] amounted to 0.14 µg/mL (≈ 0.322 µM). For the same molecule, the logP in data set [2] stood at 3.9.

These data come from patent publication US8461166B2, “Polyalkylene glycol derivatives of inhibitors of epidermal growth factor receptor tyrosine kinase” (Hadasit Medical Research Services and Development Ltd., priority 2005, dated 2013).
